Results as given in patent publication US10414763B2 (CANCER RESEARCH TECHNOLOGY LIMITED, priority 2014, dated 2019).

Each molecule was assayed against T1, full-length human PKCι (Homo sapiens, UniProt P41743) (assay: PKCι IC50 IMAP fluorescence polarisation assay, full-length enzyme, 150 μM ATP). Details: read-out: IC50 in IMAP assay against full length PKCi at 150 μM ATP.
T1 construct: Recombinant, full-length human PKCι expressed in Sf21 insect cells is also commercially available; purchased EMD Millipore; host or cells: Sf21 insect cells (baculovirus)
T1 sequence (P41743 1-596): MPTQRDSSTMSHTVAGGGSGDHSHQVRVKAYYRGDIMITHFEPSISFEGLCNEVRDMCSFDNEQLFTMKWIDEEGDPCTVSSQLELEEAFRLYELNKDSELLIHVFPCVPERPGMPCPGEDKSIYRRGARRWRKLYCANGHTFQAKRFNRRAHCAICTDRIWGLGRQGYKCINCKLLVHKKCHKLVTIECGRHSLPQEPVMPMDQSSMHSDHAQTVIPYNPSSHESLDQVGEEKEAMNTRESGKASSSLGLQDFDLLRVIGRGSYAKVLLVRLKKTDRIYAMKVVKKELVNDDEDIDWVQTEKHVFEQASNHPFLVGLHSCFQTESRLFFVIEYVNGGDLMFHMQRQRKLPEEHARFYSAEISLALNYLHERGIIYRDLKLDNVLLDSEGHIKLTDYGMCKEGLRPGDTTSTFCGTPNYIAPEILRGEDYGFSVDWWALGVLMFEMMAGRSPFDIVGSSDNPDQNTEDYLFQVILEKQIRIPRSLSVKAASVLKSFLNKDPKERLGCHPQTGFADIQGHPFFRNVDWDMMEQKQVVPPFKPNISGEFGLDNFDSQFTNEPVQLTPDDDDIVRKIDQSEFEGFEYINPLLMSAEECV
Format: biochemical
From the text: Assays are based on the ability of PKCι to phosphorylate a commercially available peptide substrate in vitro. The peptide substrate is FAM-PKCε pseudopeptide derived peptide, and comprises the amino acid sequence 5FAM-ERMRPRKRQGSVRRRV-NH2. Recombinant, full-length human PKCι expressed in Sf21 insect cells is also commercially available. Recombinant, kinase-domain human PKCι is expressed and purified in-house.
The procedure below explains how dose response curves for inhibitors of PKCι are obtained. The screen described is for a 384 well format but the assay can be adapted to 1536 or other formats as required.
Compounds to be tested are dissolved in 100% DMSO. Compounds are diluted as required to give a final concentration of 4% DMSO (v/v) in the assay. 1 μl is plated into 384 well black low-binding flat bottomed assay plates which are used immediately. Dilutions and additions of compound to assay plates are carried out using Matrix WellMate® and Matrix PlateMate® Plus liquid handling systems.
On the day of the screen PKCι/substrate working solution, and ATP working solution, are prepared in buffer containing 20 mM tris-HCl pH7.5, 10 mM MgCl2, 0.01% Triton X100, 250 μM EGTA and 1 mM DTT. The final concentration of PKCι used varies depending on the batch of protein but is typically 15 pM. The final concentration of peptide substrate in the assay is 100 nM. ATP is used at a final concentration of 150 μM or 25 μM in the assays containing full-length or kinase-domain PKCι respectively, which corresponds to five times or equal to the KM^APP for ATP for each enzyme, respectively. The final buffer concentration in the assay is 18 mM tris-HCl pH7.5, 9 mM MgCl2, 0.009% Triton X100, 225 μM EGTA and 0.9 mM DTT. Relevant controls are included, namely no compound and no enzyme. 5 μl PKCι/substrate working solution at 30 pM and 200 nM, respectively, is added to the wells, followed by 4 μl ATP working solution at 375 μM or 62.5 μM for full-length or kinase-domain PKCι respectively, using a 16 channel Matrix pipette. The reaction is allowed to incubate for 60 minutes at room temperature, before the reaction is stopped and developed by the addition of 20 μl IMAP™ development reagent (Molecular Devices). IMAP development reagent consists of 0.25% (v/v) IMAP progressive binding reagent, 17% (v/v) IMAP progressive binding buffer A and 3% (v/v) IMAP progressive binding buffer B. The plates are then incubated for 2 hours at room temperature before being read using an appropriate plate reader, for example a Molecular Devices HT Analyst or a BMG Pherastar. Plates are read using a fluorescence polarisation protocol with excitation at 485 nm and emission at 530 nm, and dichroic mirror at 505 nm.
Percentage inhibition values are calculated from fluorescence polarisation values, using the no compound and no enzyme control values as 0% and 100% inhibition, respectively. IC50 determination is performed with ExcelFit software (IDBS) using curve fit 205. Z′ factors are determined for each plate tested and are all above 0.5.
Alternatively, compounds were tested for their ability to inhibit the kinase activity of recombinant human baculovirus-expressed PKCiota using the immobilized metal-ion affinity particle (IMAP®) fluorescence polarization detection system (Molecular Devices, Sunnyvale, Calif.). PKCiota/IMAP® substrate mixture (2×) was prepared in 1×IMAP assay buffer (Molecular Devices) containing 1 mM DTT so that the final assay concentrations were 15 pM PKCiota (EMD Millipore, Billerica, Mass.) and 100 nM 5-fluorescein-amidite (FAM)-PKC ? -pseudosubstrate (5-FAM-ERMRPRKRQGSVRRRV-NH2) (Molecular Devices). The 2× working solution was added at 5 μL/well into a 384-well black, non-binding, flat bottom assay plate (Corning, Corning, N.Y.). […]

IC50, < 100 nM:
C[C@@]1(O)CNCC[C@H]1Nc1nc(-c2ccnc3[nH]c4ccccc4c23)nc2cncc(C3CCC3)c12 (racemic) [Example 246]
C[C@@]1(O)CNCC[C@H]1Nc1nc(-c2ccnc3[nH]c4ccccc4c23)nc2cncc(C3CC3)c12 (racemic) [Example 247, rac-(3R,4R)-4-[5-Cyclopropyl-2-(9H-pyrido[2,3-b]indol-4-yl)-pyrido[3,4-d]pyrimidin-4-ylamino]-3-methyl-piperidin-3-ol]
COc1cncc2nc(-c3ccnc(Nc4nc(F)ccc4F)c3)nc(NC3CCNCC3(C)C)c12 (racemic) [Example 261, rac-2-[2-[(3,6-difluoro-2-pyridyl)amino]-4-pyridyl]-N-(3,3-dimethyl-4-piperidyl)-5-methoxy-pyrido[3,4-d]pyrimidin-4-amine]
C[C@H]1CNCC[C@@H]1Nc1nc(-c2ccnc3[nH]c(C(F)(F)F)cc23)nc2cncc(C3CCC3)c12 (racemic) [Example 262]
C[C@@H]1CNCC[C@@H]1Nc1nc(-c2ccnc3[nH]c(C(F)(F)F)cc23)nc2cncc(C3CCC3)c12 (racemic) [Example 263]
O[C@H]1CNCC[C@H]1Nc1nc(-c2ccnc(Nc3ccc4ccccc4n3)c2)nc2cncc(C3CCC3)c12 (racemic) [Example 270, rac-(3S,4R)-4-{5-Cyclobutyl-2-[2-(quinolin-2-ylamino)-pyridin-4-yl]-pyrido[3,4-d]pyrimidin-4-ylamino}-piperidin-3-ol]
O[C@@H]1CNCC[C@H]1Nc1nc(-c2ccnc(Nc3ccc4ccccc4n3)c2)nc2cncc(C3CCC3)c12 (racemic) [Example 273, rac-(3R,4R)-4-{5-Cyclobutyl-2-[2-(quinolin-2-ylamino)-pyridin-4-yl]-pyrido[3,4-d]pyrimidin-4-ylamino}-piperidin-3-ol]
C[C@@H]1CNCC[C@@H]1Nc1nc(-c2ccnc(Nc3nc4ccccn4n3)c2)nc2cncc(C3CCC3)c12 (racemic) [Example 276, {5-Cyclobutyl-2-[2-([1,2,4]triazolo[1,5-a]pyridin-2-ylamino)-pyridin-4-yl]-pyrido[3,4-d]pyrimidin-4-yl}-(rac-(3R,4S)-3-methyl-piperidin-4-yl)-amine]
C[C@@H]1CNCC[C@H]1Nc1nc(-c2ccnc(Nc3nc4ccccn4n3)c2)nc2cncc(C3CCC3)c12 (racemic) [Example 277, {5-Cyclobutyl-2-[2-([1,2,4]triazolo[1,5-a]pyridin-2-ylamino)-pyridin-4-yl]-pyrido[3,4-d]pyrimidin-4-yl}-(rac-(3R,4R)-3-methyl-piperidin-4-yl)-amine]
C[C@@H]1CNCC[C@@H]1Nc1nc(-c2ccnc(Nc3ncccc3F)c2)nc2cncc(C3CCC3)c12 (racemic) [Example 282, {5-Cyclobutyl-2-[2-(3-fluoro-pyridin-2-ylamino)-pyridin-4-yl]-pyrido[3,4-d]pyrimidin-4-yl}-(rac-(3R,4S)-3-methyl-piperidin-4-yl)-amine]
C[C@@H]1CNCC[C@@H]1Nc1nc(-c2ccnc(Nc3ncc(F)cc3F)c2)nc2cncc(C3CCC3)c12 (racemic) [Example 283, {5-Cyclobutyl-2-[2-(3,5-difluoro-pyridin-2-ylamino)-pyridin-4-yl]-pyrido[3,4-d]pyrimidin-4-yl}-(rac-(3R,4S)-3-methyl-piperidin-4-yl)-amine]
O[C@H]1CNC[C@@H]1Nc1nc(-c2ccnc(Nc3nc(F)ccc3F)c2)nc2cncc(C3CCC3)c12 (racemic) [Example 285, rac-(3S,4S)-4-{5-Cyclobutyl-2-[2-(3,6-difluoro-pyridin-2-ylamino)-pyridin-4-yl]-pyrido[3,4-d]pyrimidin-4-ylamino}-pyrrolidin-3-ol]
